Where two headings read alike, the source gives them in different places. Residues, ends and D or L forms follow the SMILES beside them.
Key:
HIV-1 = settings: PBMCs, 23 HIV-1 clinical isolates from different subtypes, cited from earlier work
HIV [1] = settings: MT-4 cells; read-out: EC50, anti-HIV activity; cited from earlier work
HIV [2] = settings: MT-2 cells; cited from earlier work
CA-hexamers = settings: read-out: binding affinity of CA-hexamers with PF74 by ITC; isothermal calorimetry, Bhattacharya et al., 2014; cited from earlier work
HIV-1 CA-hexamers = HIV-1 CA-hexamers (Human immunodeficiency virus type 1 group M subtype B, UniProt P12493); assay: biochemical; assay type: binding
Method: During the MST experiment, a temperature gradient is induced by an infrared laser. The directed movement of molecules through the temperature gradient is detected and quantified using covalently attached fluorophore.
Fluorescent labeling of CA with Alexa Fluor 647 analog NT647 was performed according to the manufacturer's instructions (MO-L004 Monolith Protein Labeling Kit; NanoTemper Technologies GmbH, Munich, Germany). 20 μM protein was incubated overnight with 3 molar excess of dye at room temperature in a conjugation buffer provided with the labeling kit. The unreacted dye was removed by filtration through a gravity flow column provided with the kit. The elution fractions were collected in 2×MST buffer (100 mM MOPS, pH 7.0, 200 mM NaCl, and 0.2% pluronic F-127). Fluorescence intensity of each fraction was evaluated by MST (Monolith NT.115, NanoTemper Technologies GmbH, Munich, Germany), and fractions containing labelled protein were pooled. Protein concentration was determined by NANODROP (Thermo Scientific, Waltham, MA) spectrophotometer. Aliquots were stored at −80° C. until use. […] The data were analyzed using MO. Affinity software (version 2.3) (NanoTempet Technologies, CA) by fitting the data point to a quadratic equation (Equation 1) and plotting by PRISM (Version 6.0) (GraphPad Inc. La Jolla, CA).

## CC(C)(C#Cc1ccc(-c2ccc(Cl)c3c(NS(C)(=O)=O)nn(CC(F)(F)F)c23)c([C@H](Cc2cc(F)cc(F)c2)NC(=O)Cn2nc(C(F)(F)F)c3c2C(F)(F)[C@@H]2C[C@H]32)n1)S(C)(=O)=O [GS-6207]
HIV-1; read-out: mean EC50
  EC50: 0.05 nM
HIV-1; read-out: range of EC50 over clinical isolates
  EC50: 0.02 to 0.16 nM
HIV [1]
  EC50: 0.1 nM

## Cc1[nH]c2ccccc2c1CC(=O)N[C@@H](Cc1ccccc1)C(=O)N(C)c1ccccc1 [PF74]
HIV [2]
  EC50: 570 nM
CA-hexamers
  Kd: 262 nM

## CC(C)[C@@H]1NC(=O)CNC(=O)[C@H](CO)NC(=O)CNC(=O)[C@@H]2CCCN2C(=O)[C@H](Cc2ccccc2)NC(=O)[C@H](CC(N)=O)NC(=O)[C@H](C(C)C)NC(=O)[C@@H]2CCCN2C(=O)CNC(=O)[C@H](Cc2ccccc2)NC(=O)[C@H]([C@@H](C)O)NC(=O)[C@H](Cc2ccccc2)NC1=O [Pep-2-cyclic] (cyclo(FGPVNFPGSGVFT))
HIV-1 CA-hexamers
  Kd: 32 ± 3 nM
HIV-1 CA-hexamers; Pep-2-cyclic vs PF74, MST
  fold better CA binding affinity than PF74: ~7 fold

— US12590125B2, “Peptide inhibitors for the inhibition of HIV capsid” (THE CURATORS OF THE UNIVERSITY OF MISSOURI, priority 2019, dated 2026)
